Earlier results in patent publication US7090851B1, “Long lasting fusion peptide inhibitors of viral infection” (priority 1999, dated 2006).
Entries after “also recorded” stand apart in the source; their conditions may differ.

System: simian immunodeficiency virus (SIV)
Details: as crude peptide
For “EWERKVDFLEENITALLEEAQIQQEKNMYELQKLN [SEQ ID NO:66]”, the “anti-SIV activity” value is listed as “potent antiviral activity”. For “DFLEENITALLEEAQIQQEKNMYELQKLNSWDVFG [SEQ ID NO:72]”, the “anti-SIV activity” value is listed as “potent antiviral activity”. For “ERKVDFLEENITALLEEAQIQQEKNMYELQKLNSW [SEQ ID NO:68]”, the “anti-SIV activity” value is listed as “potent antiviral activity”. For “VDFLEENITALLEEAQIQQEKNMYELQKLNSWDVF [SEQ ID NO:71]”, the “anti-SIV activity” value is given as “potent antiviral activity”. In the case of “KVDFLEENITALLEEAQIQQEKNMYELQKLNSWDV [SEQ ID NO:70]”, the “anti-SIV activity” value is listed as “potent antiviral activity”. In the case of “QEWERKVDFLEENITALLEEAQIQQEKNMYELQKL [SEQ ID NO:65]”, the “anti-SIV activity” value is given as “potent antiviral activity”. For “FLEENITALLEEAQIQQEKNMYELQKLNSWDVFGN [SEQ ID NO:73]”, the “anti-SIV activity” value is given as “potent antiviral activity”. For “WQEWERKVDFLEENITALLEEAQIQQEKNMYELQK [SEQ ID NO:64]”, the “anti-SIV activity” value is given as “potent antiviral activity”. For “RKVDFLEENITALLEEAQIQQEKNMYELQKLNSWD [SEQ ID NO:69]”, the “anti-SIV activity” value is listed as “potent antiviral activity”. For “WERKVDFLEENITALLEEAQIQQEKNMYELQKLNS [SEQ ID NO:67]”, the “anti-SIV activity” value is given as “potent antiviral activity”.

System: measles virus (MeV)
Details: MeV-infected and uninfected Vero cells
For “PISLERLDVGTNLGNAIAKLEAKELLESSDQILR [SEQ ID NO:84]”, the “inhibition of MeV viral infection, fusion and syncytia formation” value (shortened to “inhibition of MeV viral infection”) is listed as “inhibits viral infection”. In the case of “HRIDLGPPISLERLDVGTNLGNAIAKLEAKELLE [SEQ ID NO:77]”, the “inhibition of MeV viral infection” value is listed as “inhibits viral infection”. In the case of “IDLGPPISLERLDVGTNLGNAIAKLEAKELLESS [SEQ ID NO:79]”, the “inhibition of MeV viral infection” value is given as “inhibits viral infection”.

System: HIV-1
Details: infection and cell-cell fusion
In the case of enfuvirtide, the “anti-HIV-1 activity (words)” value is listed as “potent inhibitor of HIV-1; also recorded: potent anti-HIV-1 activity”.

Same assay, conditions: infection and cell-cell fusion; listed as DP-107
For “NNLLRAIEAQQHLLQLTVWQIKQLQARILAVERYLKDQ [DP107]”, the “anti-HIV-1 activity (words)” value is given as “potent inhibitors of HIV-1 infection and fusion”.

Same assay, conditions: infection and cell-cell fusion; listed as DP-178
For enfuvirtide, the “anti-HIV-1 activity (words)” value is given as “potent inhibitors of HIV-1 infection and fusion”.

System: human parainfluenza virus 3 (HPIV3)
Details: HPIV3-infected Hep2 cells and uninfected CV-1W cells
In the case of “LDPIDISIELNKAKSDLEESKEWIRRSNQKLDSIG (ALDPIDISIELNKAKSDLEESKEWIRRSNQKLDSI) [SEQ ID NO:39, anti-HPIV peptide]”, the “inhibition of HPIV3 viral infection, fusion and syncytia formation” value (“inhibition of HPIV3 viral infection” for short) is given as “inhibits viral infection”. In the case of “VEAKQARSDIEKLKEAIRDTNKAVQSVQSSIGNLI [SEQ ID NO:52]”, the “inhibition of HPIV3 viral infection” value is given as “inhibits viral infection”. For “PIDISIELNKAKSDLEESKEWIRRSNQKLDSIGNW (DPIDISIELNKAKSDLEESKEWIRRSNQKLDSIGN) [SEQ ID NO:41, anti-HPIV peptide]”, the “inhibition of HPIV3 viral infection” value is given as “inhibits viral infection”. In the case of “NSVALDPIDISIELNKAKSDLEESKEWIRRSNQKL (NNSVALDPIDISIELNKAKSDLEESKEWIRRSNQK) [SEQ ID NO:35, anti-HPIV peptide]”, the “inhibition of HPIV3 viral infection” value is given as “inhibits viral infection”. For “IDISIELNKAKSDLEESKEWIRRSNQKLDSIGNWH (PIDISIELNKAKSDLEESKEWIRRSNQKLDSIGNW) [SEQ ID NO:42, anti-HPIV peptide]”, the “inhibition of HPIV3 viral infection” value is listed as “inhibits viral infection”. In the case of “DPIDISIELNKAKSDLEESKEWIRRSNQKLDSIGN (LDPIDISIELNKAKSDLEESKEWIRRSNQKLDSIG) [SEQ ID NO:40, anti-HPIV peptide]”, the “inhibition of HPIV3 viral infection” value is given as “inhibits viral infection”. For “ALDPIDISIELNKAKSDLEESKEWIRRSNQKLDSI (VALDPIDISIELNKAKSDLEESKEWIRRSNQKLDS) [SEQ ID NO:38, anti-HPIV peptide]”, the “inhibition of HPIV3 viral infection” value is listed as “inhibits viral infection”. In the case of “RSDIEKLKEAIRDTNKAVQSVQSSIGNLIVAIKSV [SEQ ID NO:58]”, the “inhibition of HPIV3 viral infection” value is given as “inhibits viral infection”.

System: respiratory syncytial virus (RSV)
Details: Hep-2 cells
In the case of “IALLSTNKAVVSLSNGVSVLTSKVLDLKNYIDK [SEQ ID NO:29, anti-RSV peptide]”, the “concentration inhibiting fusion and syncytia formation between RSV-infected and uninfected Hep-2 cells” value is given as “less than 50 μg/ml”.

Same assay, conditions: RSV-infected and uninfected Hep-2 cells
For “YTSVITIELSNIKENKCNGAKVKLIKQELDKYK (YTSVITIELSNIKENKCNGDAKVKLIKQELDKYK) [SEQ ID NO:14, anti-RSV peptide]”, the “inhibition of RSV viral infection, fusion and syncytia formation” value (from here on “inhibition of RSV viral infection”) is given as “inhibits viral infection”. For “VITIELSNIKENKCNGAKVKLIKQELDKYKNAV (VITIELSNIKENKCNGDAKVKLIKQELDKYKNAV) [SEQ ID NO:16, anti-RSV peptide]”, the “inhibition of RSV viral infection” value is given as “inhibits viral infection”. For “IALLSTNKAVVSLSNGVSVLTSKVLDLKNYIDK [SEQ ID NO:29, anti-RSV peptide]”, the “inhibition of RSV viral infection” value is given as “inhibits viral infection”. In the case of “TSVITIELSNIKENKCNGAKVKLIKQELDKYKN (TSVITIELSNIKENKCNGDAKVKLIKQELDKYKN) [SEQ ID NO:15, anti-RSV peptide]”, the “inhibition of RSV viral infection” value is given as “inhibits viral infection”.
